# Results as given in patent US20100111972A1, “Method for preventing or treating opiate tolerance and dependence” (priority 2008, published 2010).
# Key:
# Type in all cases: in vivo, mice
# c-Fos = c-Fos immunostaining in dorsal horn during morphine withdrawal; conditions: naloxone challenge after escalating morphine treatment
# Procedure: (§1) Mice were anesthetized and perfused transcardially with cold saline followed by ice-cold 4% paraformaldehyde solution. The lumbar segment of the SC was dissected out and post-fixed at 4° C. for 4 h with the paraformaldehyde solution, then the Histo Prep (Fisher Scientific, Fair Lawn, N.J.) embedded blocks were sectioned on a Leica CM1850 cryostat (Leica Microsystems, Germany). Sections (10 μm) were thaw-mounted on to glass slides and allowed to air dry. The immunofluorescence staining was performed as previously described (Kerr et al, 2000). Endogenous peroxidases were blocked by incubating tissue sections with 0.3% hydrogen peroxide for 30 min and 3% normal goat serum for 20 min. […]
# (§2) The morphologic details of the immunofluorescence staining on SC were studied under a fluorescence microscope (Olympus BX51WI; Olympus America Inc., Melville, N.Y.). […] Fos-immunoreactive neurons were counted in blind fashion. The number of Fos-like immunoreactive neurons in DH (laminae I-VI) was determined by averaging the counts made in 20 SC sections (L4-L5) for each group. To obtain quantitative measurements of CGRP immunofluorescence, 15-20 fields covering the entire DH in each group were evaluated and photographed at the same exposure time to generate the raw data. Fluorescence intensities of the different groups were analyzed using MicroSuite image analysis software (Olympus America Inc.). […]
# EphB1 receptor protein = test: Western blot of EphB1 receptor protein in spinal cord; conditions: SC
# Procedure: (§3) Western blot analysis was used to detect expression of EphB receptors, ephrinBs, and phosphorylated NR2B, ERK and CREB proteins in the SC. A total of 108 mice were used for Western blotting experiments (SC from 4 mice were pooled for each sample and each group consisted of 3 samples). The lumbar segments of the SC were quickly extracted and immediately frozen in liquid nitrogen, and stored at −80° C. The procedure used to quantify temporal changes in protein levels was similar to that previously described (Bundesen et al, 2003). In brief, protein precipitation procedures in conjunction with Western blots were used to detect protein bands with an enhanced chemiluminescent (ECL) detection procedure. Sequential precipitation procedures were used on tissue samples that were lysed in ice-cold (4° C.) lysis buffer [50 mM Tris, pH 7.5, containing 150 mM NaCl, 1% Triton X-100, 0.5% deoxycholate, 0.1% SDS, 0.2 mM EDTA, 10 mM NaF, […], 0.4 mM 4-(2-aminoethyl)-benzenesulfonyl fluoride, and 1 mM sodium orthovanadate. The protein concentration of the lysates was estimated using the method of BCA (Pierce, Ill.), and the total protein content between samples was equalized. […] Data were analyzed with the Molecular Imager (Gel Doc™ XR, 170-8170) and the associated software Quantity One-4.6.5 (Bio-Rad Laboratories, Hercules, Calif.).
# p-NR2B = test: Western blot of phosphorylated NR2B in spinal cord; conditions: escalated morphine treatment; SC
# Procedure: as §3
# p-CREB = test: Western blot of phosphorylated CREB in spinal cord; conditions: escalated morphine treatment; SC
# Procedure: as §3
# CGRP = CGRP immunofluorescence in dorsal horn after morphine treatment and withdrawal; conditions: repeated morphine exposure (7 escalating i.p. doses)
# Procedure: as §1, §2
# p-ERK = test: Western blot of phosphorylated ERK in spinal cord; conditions: escalated morphine treatment; SC
# Procedure: as §3
# ephrinB2 = test: Western blot of ephrinB2 in spinal cord; conditions: following escalating morphine treatment or morphine withdrawal; SC
# Procedure: as §3
# [1] = system: phosphotyrosine (PY99) proteins; test: Western blot of phosphotyrosine (PY99) proteins in spinal cord; conditions: following escalating morphine treatment or morphine withdrawal; SC
# Procedure: as §3
# ephrinB1 = test: Western blot of ephrinB1 in spinal cord; conditions: following escalating morphine treatment or morphine withdrawal; SC
# Procedure: as §3
Structure (SMILES),number of Fos-like immunoreactive neurons in the dorsal horn (c-Fos),morphine-induced increase in EphB1 receptor protein expression (EphB1 receptor protein; naloxone treatment after escalating morphine),level of p-NR2B protein (p-NR2B),level of p-CREB protein (p-CREB),expression of CGRP throughout the DH region of the SC (CGRP),level of p-ERK protein (p-ERK),expression of ephrinB2 (ephrinB2),expression of phosphotyrosine (PY99) proteins [1],expression of ephrinB1 (ephrinB1),expression of EphB1 receptor protein (EphB1 receptor protein; after escalating morphine treatment)
C=CCN1CC[C@]23c4c5ccc(O)c4O[C@H]2C(=O)CC[C@@]3(O)[C@H]1C5 [naloxone],significantly increased,did not significantly alter,–,–,–,–,–,–,–,–
CN1CC[C@]23c4c5ccc(O)c4O[C@H]2[C@@H](O)C=C[C@H]3[C@H]1C5 [morphine],–,–,significant increases,significant increases,greatly increased,significant increases,failed to show significant changes,failed to show significant changes,failed to show significant changes,significantly increased
